Assay results: patent US4946844A, “Optically active benzoquinolizine compounds, process for preparing same, and antibacterial preparation containing same as active ingredient” (Tokyo Tanabe Co., Ltd., priority 1987, dated 1990)

Assays:
[1] = tested on: Klebsiella pneumoniae PCI 602; test: In vitro antibacterial activity (minimum inhibitory concentration); type: cell-based; conditions: 37° C.; for Minimum inhibitory concentration: 20 hours, hydrochloride monohydrate
Protocol: (§1) The in vitro antimicrobial activity of a typical compound in accordance with the present invention (hereinafter referred to as the present compound) was evaluated in terms of minimum inhibitory concentrations for various Gram-positive and Gram-negative bacteria. The Gram-positive bacteria used as test microorganisms included Bacillus subtilis, Staphylococcus aureus, Staphylococcus epidermidis and Streptococcus pyogenes, and the Gram-negative bacteria used as test microorganisms included Escherichia coli, Enterobacter cloacae, Klebsiella pneumoniae, Proteus vulgaris, Pseudomonas aeruginosa, Serratia marcescens, Salmonella enteritidis and Morganella morganii. The minimum inhibitory concentrations (for the test microorganisms cultured at 37° C. for 20 hours) were determined according to the standard method prescribed by the Japanese Chemotherapeutic Society (Journal of the Japanese Chemotherapeutic Society, Vol. 29, No. 1, p. 76, 1981). As the present compound, there was used (+)-9-fluoro-5-methyl-8-(4-methyl-1-piperazinyl)-6,7-dihydro-1,7-dioxo1H,5H-benzo[ij]quinolizine-2-carboxylic acid hydrochloride monohydrate which had been prepared in Example 1 described later. For purposes of comparison, control compounds were evaluated in the same manner as described above. These control compounds comprised the optically active (-)-isomer of the aforesaid compound (which had been prepared in Reference Example described later) and the racemate thereof.

[2] = tested on: Salmonella enteritidis G 14; test: as above; type: cell-based; conditions: 37° C.; for Minimum inhibitory concentration: 20 hours, hydrochloride monohydrate
Protocol: as §1

[3] = tested on: Staphylococcus aureus FDA 209P JC-1; test: as above; type: cell-based; conditions: 37° C.; for Minimum inhibitory concentration: 20 hours, hydrochloride monohydrate
Protocol: as §1

[4] = tested on: Escherichia coli NIHJ JC-2; test: as above; type: cell-based; conditions: 37° C.; for Minimum inhibitory concentration: 20 hours, hydrochloride monohydrate
Protocol: as §1

[5] = tested on: Streptococcus pyogenes ATCC 19615; test: as above; type: cell-based; conditions: 37° C.; for Minimum inhibitory concentration: 20 hours, hydrochloride monohydrate
Protocol: as §1

[6] = tested on: Serratia marcescens IAM 1184; test: as above; type: cell-based; conditions: 37° C.; for Minimum inhibitory concentration: 20 hours, hydrochloride monohydrate
Protocol: as §1

[7] = tested on: Bacillus subtilis ATCC 6633; test: as above; type: cell-based; conditions: 37° C.; for Minimum inhibitory concentration: 20 hours, hydrochloride monohydrate
Protocol: as §1

[8] = tested on: Staphylococcus epidermidis IAM 1296; test: as above; type: cell-based; conditions: 37° C.; for Minimum inhibitory concentration: 20 hours, hydrochloride monohydrate
Protocol: as §1

Enterobacter cloacae 963 = test: as above; type: cell-based; conditions: 37° C.; for Minimum inhibitory concentration: 20 hours, hydrochloride monohydrate
Protocol: as §1

[9] = tested on: Morganella morganii IFO 3848; test: as above; type: cell-based; conditions: 37° C.; for Minimum inhibitory concentration: 20 hours, hydrochloride monohydrate
Protocol: as §1

[10] = tested on: Proteus vulgaris ATCC 13315; test: as above; type: cell-based; conditions: 37° C.; for Minimum inhibitory concentration: 20 hours, hydrochloride monohydrate
Protocol: as §1

[11] = tested on: Pseudomonas aeruginosa PAO 1; test: as above; type: cell-based; conditions: 37° C.; for Minimum inhibitory concentration: 20 hours, hydrochloride monohydrate
Protocol: as §1

[12] = tested on: various Gram-positive and Gram-negative bacteria; test: In vitro antibacterial activity over all test microorganisms (comparison of potency); type: cell-based; conditions: versus racemate
Protocol: as §1, with “These control compounds comprised the optically active (-)-isomer of the aforesaid compound (which had been prepared in Reference Example described later) and the racemate thereof.” left out

Solubility in water = type: physicochemical
Protocol: The solubilities of the present compound (which had been prepared in Example 1) and its racemate in water were determined.

Row | Structure (SMILES) | Minimum inhibitory concentration [1] [µg/mL] | Minimum inhibitory concentration [2] [µg/mL] | Minimum inhibitory concentration [3] [µg/mL] | Minimum inhibitory concentration [4] [µg/mL] | Minimum inhibitory concentration [5] [µg/mL] | Minimum inhibitory concentration [6] [µg/mL] | Minimum inhibitory concentration [7] [µg/mL] | Minimum inhibitory concentration [8] [µg/mL] | Minimum inhibitory concentration (Enterobacter cloacae 963) [µg/mL] | Minimum inhibitory concentration [9] [µg/mL] | Minimum inhibitory concentration [10] [µg/mL] | Minimum inhibitory concentration [11] [µg/mL] | solubility (Solubility in water) [mg/mL] | further results
1 | CC1CC(=O)c2c(N3CCN(C)CC3)c(F)cc3c(=O)c(C(=O)O)cn1c23.Cl.O (single isomer, unassigned; (+)) [Present compound, (+)-9-fluoro-5-methyl-8-(4-methyl-1-piperazinyl)-6,7-dihydro-1,7-dioxo-1H,5H-benzo[ij]quinolizine-2-carboxylic acid hydrochloride monohydrate] | ≤ 0.025 | 0.20 | 0.20 | 0.10 | 0.78 | 0.39 | 0.05 | 0.39 | 0.10 | ≤ 0.025 | 0.10 | 0.78 | ~180 | antibacterial activity relative to the racemate (compound [I]) [12]: about twice as potent; solubility relative to the racemate (Solubility in water; versus racemate): about 25 times
2 | CC1CC(=O)c2c(N3CCN(C)CC3)c(F)cc3c(=O)c(C(=O)O)cn1c23.Cl.O (racemic) [Racemate, (±)-9-fluoro-5-methyl-8-(4-methyl-1-piperazinyl)-6,7-dihydro-1,7-dioxo-1H,5H-benzo[ij]quinolizine-2-carboxylic acid hydrochloride monohydrate] | – | – | – | – | – | – | – | – | – | – | – | – | ~7 | MIC ([1]; Klebsiella pneumoniae, PCI602, 20 h): 0.1 µg/mL; MIC ([2]; Salmonella enterica, ENTERITIDIS, 20 h): 0.78 µg/mL; MIC ([3]; Staphylococcus aureus, FDA209P, 20 h): 0.39 µg/mL; MIC ([4]; Escherichia coli, NIHJJC2, 20 h): 0.2 µg/mL; MIC ([5]; Streptococcus pyogenes, ATCC19615, 20 h): 6.25 µg/mL; MIC ([6]; Serratia marcescens, IAM1184, 20 h): 1.56 µg/mL; MIC ([7]; Bacillus subtilis, ATCC6633, 20 h): 0.1 µg/mL; MIC ([8]; Staphylococcus epidermidis, IAM1296, 20 h): 1.56 µg/mL; MIC (Enterobacter cloacae 963; Enterobacter cloacae, 963, 20 h): 0.2 µg/mL; MIC ([9]; Morganella morganii, IFO3848, 20 h): 0.1 µg/mL; MIC ([10]; Proteus vulgaris, ATCC13315, 20 h): 0.2 µg/mL; MIC ([11]; Pseudomonas aeruginosa, PAO1, 20 h): 1.56 µg/mL
3 | CC1CC(=O)c2c(N3CCN(C)CC3)c(F)cc3c(=O)c(C(=O)O)cn1c23.Cl.O (single isomer, unassigned; (-)) [(-)-isomer, (-)-9-fluoro-5-methyl-8-(4-methyl-1-piperazinyl)-6,7-dihydro-1,7-dioxo-1H,5H-benzo[ij]quinolizine-2-carboxylic acid hydrochloride monohydrate] | 0.78 | 1.56 | 25 | 3.13 | > 100 | 3.13 | 1.56 | 50 | 3.13 | 0.78 | 0.78 | 12.5 | – | –
